Results: patent US12044651B2, “Sensor device and methods” (SCENTIAN BIO LIMITED, priority 2016, dated 2024)

How the values were obtained:
Format in all cases: binding
OR35a [1] = molecular target: T1, OR35a (Drosophila melanogaster, UniProt Q9V3Q2); experiment: CNT-FET sensor, OR35a nanodiscs via his-tag/Ni-NTA (Example 2); conditions: for real time source-drain current response: OR35a nanodiscs 1:10, E-2-hexenal at 64 pM, methyl hexanoate 70 nM to 500 μM
T1 sequence (Q9V3Q2 1-409): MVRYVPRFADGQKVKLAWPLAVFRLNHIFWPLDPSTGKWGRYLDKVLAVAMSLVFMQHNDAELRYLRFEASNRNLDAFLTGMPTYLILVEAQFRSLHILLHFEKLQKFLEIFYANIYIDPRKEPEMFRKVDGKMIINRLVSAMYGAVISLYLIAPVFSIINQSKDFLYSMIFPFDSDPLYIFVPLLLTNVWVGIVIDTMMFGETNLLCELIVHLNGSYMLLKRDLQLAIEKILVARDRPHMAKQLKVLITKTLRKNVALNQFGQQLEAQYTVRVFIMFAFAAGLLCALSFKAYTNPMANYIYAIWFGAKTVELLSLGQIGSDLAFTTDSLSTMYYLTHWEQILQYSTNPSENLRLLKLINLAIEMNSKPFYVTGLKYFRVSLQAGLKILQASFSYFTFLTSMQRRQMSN

Or10a [2] = molecular target: T2, Or10a (Drosophila melanogaster, UniProt Q9VYZ1); experiment: EIS sensor, Or10a nanodiscs on gold electrode (Example 4)
T2 sequence (Q9VYZ1 1-406): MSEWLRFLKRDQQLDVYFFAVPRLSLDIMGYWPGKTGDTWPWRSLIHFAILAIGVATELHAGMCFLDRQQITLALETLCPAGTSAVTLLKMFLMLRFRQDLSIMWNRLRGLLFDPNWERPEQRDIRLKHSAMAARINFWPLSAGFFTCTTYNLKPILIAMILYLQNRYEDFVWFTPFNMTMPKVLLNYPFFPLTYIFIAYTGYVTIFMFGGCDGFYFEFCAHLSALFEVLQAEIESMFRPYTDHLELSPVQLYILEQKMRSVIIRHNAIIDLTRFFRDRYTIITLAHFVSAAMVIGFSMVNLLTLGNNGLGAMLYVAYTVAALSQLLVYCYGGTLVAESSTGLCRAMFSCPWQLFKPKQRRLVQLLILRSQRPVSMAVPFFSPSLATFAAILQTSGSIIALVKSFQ

Or10a [3] = molecular target: T2, Or10a; experiment: CNT-FET sensor covalently functionalized with OR10a nanodiscs (Example 3); conditions: for current response: increasing additions of ligand
Description: The dispersion was sonicated until a clear solution was obtained. The temperature was kept at 25° C. throughout the sonication process. The thiolpyridine solution was prepared by dissolving 10 mg of 2-Mercaptopyridine (99%, Sigma Aldrich) in 1 ml of methanol. The solution was spun coated on a polydimethylsiloxane (PDMS) surface at 2000 rpm for one minute. Before the spin coating process, the PDMS surface was cleaned by a 50 W Oxygen plasma for 1 minute to improve the wettability. The cleaned substrates were placed upside down on the PDMS surface for three minutes and washed in ethanol to remove the excess thiolpyridine molecules. Then the substrates were transferred into the CNT suspension and immersed into the suspension for 10 minutes. The samples were removed from the suspension and dipped into Ethanol for another 10 minutes to remove the thiolpyridine molecules in the SWNT network. The alignment markers were deposited by defining the markers by photolithography and thermal evaporation of 5 nm Chromium and 50 nm of Gold. The metal Lift off was done by acetone immersion for 15 minutes followed by an Isopropyl alcohol (IPA) wash and N2 blow dry. The result is a uniform thin film CNT network covering the entire substrate surface. The purification procedure is a variation on the one detailed in […] et al. 2013^14. […] The cell pellet was collected by centrifugation at 3800 g for 10 min at room temperature and then resuspended in 40 mL of resuspension buffer A (20 mM Tris/HCl pH 7.5, 100 mM NaCl, 1× protease inhibitor cocktail (Roche Diagnostics GmbH, Germany)), with 25 U/mL Benzonase, then lysed by two passes on an Emulsiflex C5 emulsifier (Avestin, Germany) at 10,000-15,000 psi. The sample was then centrifuged at 1000 g for 5 min to remove whole cells and nuclei. The supernatant was removed and spun at 100,000 g for 1 h at 4° C. The membrane pellet was resuspended in 40 mL of buffer A with 1% w/v detergent (Zwittergent 3-16) and rotated for 1 h at room temperature at 10 rpm. The sample was then centrifuged at 100,000 g for 1 h at 18° C. The supernatant was removed and loaded onto a 1 mL NiNTA column (GE Healthcare) where the zwittergent 3-16 detergent was exchanged to Fos-Choline 14 (FC-14). The column was washed in ten column volumes of buffer B (20 mM Tris/HCl pH 7.5, 3.6 mM FC-14) with 300 mM NaCl and 20 mM imidazole, and a further ten column volumes of buffer B with 100 mM NaCl and 50 mM imidazole. Protein was eluted with four column volumes buffer B with 100 mM NaCl and 500 mM imidazole. Purity was assessed on Coomassie stained SDS-PAGE gels and Western blotting. Purification was completed with a final size exclusion chromatography (SEC) step. […]

OR35a [4] = molecular target: T1, OR35a; experiment: EIS sensor, Or35a nanodiscs on gold electrode (Example 4)
Or10a [5] = molecular target: T2, Or10a; experiment: EIS sensor, Or10a liposomes on gold electrode, optimized conditions (Example 5)
[6] = real time current measurement mode

SMILES | concentration to which the sensor demonstrates a response in real time (OR35a [1]; OR35a nanodisc functionalized CNT FET) [pM] | real time source-drain current response (OR35a [1]) | ΔI/I0 change (OR35a [1]; at 64 pM, OR35a nanodiscs 1:10 dilution) [%] | EC50 (OR35a [1]; present study, Table 4) [nM] | Sensitivity limit (OR35a [1]; present study, Table 4) [pM] | concentration at which clear electronic response starts (OR35a [1]; [6]) [fM] | EIS response to control ligand (Or10a [2]) | current response (Or10a [3]; nanodiscs 1:100 dilution) | LOD (OR35a [4]; EIS) [fM] | EIS response to control ligand (Or10a [5]) | LOD (Or10a [5]; EIS) [pM] | LOD (Or10a [2]; EIS) [fM] | limit of detection (Or10a [3]; nanodiscs 1:100 dilution) | concentration at which clear electronic response starts (Or10a [3]; [6]) [fM] | EIS response to control ligand (OR35a [4])
CCC/C=C/C=O [E2-hexenal] | 64 | immediate large decrease | 10 | ~0.3 | 0.001 | 1 | do not respond | no response | < 1 |  |  |  |  |  | 
CCCCCC(=O)OC [methyl hexanoate] |  | no clear response |  |  |  |  |  |  |  | do not respond |  |  |  |  | 
COC(=O)c1ccccc1O [methyl salicylate] |  |  |  |  |  |  |  | consistently large decreases |  |  | 1 | 10 | below 1 fM | 1 | does not respond
